Reference: US8921356B2, “Compositions comprising nicotinic agonists and methods of using same” (priority 2007, dated 2014)

Tests used:
rats [1] = test: Nicotine-induced hypothermia in rats; assay type: in vivo, rat
Experimental: (§1) (ii) Animals—Young adult (240 g-290 g) male Sprague-Dawley rats (Charles River, USA or Harlan, Israel) were used in the experiments.
(iv) Determination of nicotine-induced hypothermia—Rats were placed individually in experimental cages kept at 25° C. and were allowed to rest for 1 h before drug injection. During this period, body temperature was measured at 15- or 30-min intervals in order to exclude the effect of handling on animal temperature. Body temperature was measured with a rectal thermistor probe (M.R.C, Israel, sensitivity 0.1° C.). The probe was lubricated with petroleum before being inserted into the rectum to a depth of 2 cm. The data are presented as changes in rectal temperature from the basal values. Basal values are those taken immediately before the drug injection (time 0).
Rats were divided into three treatment groups, each of 5 rats, as follows: 1. treatment with nicotine (2 mg/kg); 2. treatment with opipramol (20 mg/kg); 3. treatment with opipramol (20 mg/kg) together with nicotine (2 mg/kg). Rats were injected with nicotine twice on the first day (FIG. 3A, D-1, left panel) and three times on days 2 (FIG. 3A, D-2, middle panel) and 3 (FIG. 3A, D-3, right panel). […] Nicotine was injected with and without opipramol, and body temperature was measured at 30 min intervals. […] FIG. 3A: Each point is the Mean±S.E.M. of change in body temperature compared to the temperature measured at time 0 (before the first injection) for at least five rats. FIG. 3B depicts a bar histogram representing mean±S.E.M. of the maximum change in body temperature compared to the temperature measured just before the injection.
The body temperature (0 C) was measured 30 min post injection. FIG. 7 depicts the maximum decrease in body temperature after each injection.
Nicotine (2 mg/kg), lidocaine (15 mg/kg), and nicotine+lidocaine (2 mg/kg+15 mg/kg) were administered to rats 2× day for two days, following the above protocol.

nAChR = test: Nicotine-induced 45Ca2+ uptake (calcium influx) in SK-N-SH human neuroblastoma cells; assay type: cell-based
Experimental: (i) Cells—SK-N-SH human neuroblastoma cell line was obtained from the American Type Culture Collection (ATTC).
SK-N-SH human neuroblastoma cells, known to express nAChR, were grown in Dulbecco/Vogt Modified Eagle's Minimal Essential Medium (DMEM) to confluency in a 24-well plate. DMEM containing 45Ca^2+ without any other addition (1) or with 50 μM nicotine (2) or with 50 μM nicotine+10 μM opipramol (3) was added to cells grown in 24-well plates and preincubated with medium alone for 15 minutes, then washed rapidly. Intra cellular radioactivity was determined for each condition. The same medium with nicotine was added also to cells that were preincubated for 15 minutes with either 50 μM nicotine alone (4) or with 50 μM nicotine+10 μM opipramol (5). 45Ca2+ uptake was determined after 10 min. Activation of the nicotinic receptors causes calcium influx so it is a measure of the nicotinic receptor activity.

[2] = tested on: smooth muscle of a guinea pig ileum; test: Nicotine-induced smooth muscle contraction in the guinea pig ileum preparation
Experimental: The free end of a smooth muscle of a guinea pig ileum was attached to a force displacement transducer. Isometric tension of the smooth muscle was continuously monitored by outputting the preamplified transducer signal to a computer.
The ileum preparation was washed by physiological solution 10 min after the addition of nicotine and then nicotine at a final concentration of 25 μM was added again to the muscle preparation for additional 10 min (2nd stimulation; bar 3).

rats [3] = test: Elevated plus maze (EPM) anxiety test in rats; assay type: in vivo, rat
Description: as §1
(v) Elevated […] Maze (EPM)—The purpose of the EPM is to determine the anxiolytic effects of tested drugs. The time that the experimental animals spend in the open arm of the maze is an indication for the anxiolytic effect, the longer the time the higher the anxiolytic effect. The EPM is a wooden, cross-shaped device, consisting of four arms arranged in the shape of a plus sign. Two of the arms have no side or end walls (open-arms; 30×5×0.25 cm). The other two arms have side walls and end walls, but are open on top (closed arms; 30×5×15 cm). The maze is elevated to a height of 50 cm. The animals are kept in a relatively dark box before exposure to the maze in order to increase their exploratory behavior. The tests were done in a silent environment under dim light. The animals were carried to the laboratory and left there undisturbed for 1 h before the experiment.
This test is used to assess anxiety. Rats were randomly assigned into five groups each containing 5 animals and then tested in an Elevated Plus Maze (EPM). In the first (control) group, rats were injected with saline once a day; in the second group rats were injected with nicotine (0.5 mg/kg or 2 mg/kg) three times a day and were tested in the maze after the third injection; in the third group rats were injected with opipramol (10 mg/kg) three times a day and then were tested in the maze; in the fourth group, rats were injected with opipramol (10 mg/kg) or galantamine (5 mg/kg), and nicotine (2 mg/kg or 0.5 mg/kg) three times a day and were tested in the maze after the last injection. The behavioral response to nicotine in the EPM was assessed 30 min after the first injection, and then again 30 minutes after the third injection.

BDNF mRNA = BDNF mRNA expression in rat cerebral cortex; assay type: in vivo
Experimental: Nicotine alone (0.5 mg/kg) or opipramol (10 mg/kg) or nicotine (0.5 mg/kg)+opipramol (10 mg/kg) were injected intraperitoneally (ip) to rats (5 per group) at intervals of 2 hours during a single day. The drugs were dissolved in saline and used in the same day. […] Animals were sacrificed 90 min after each injection and brain derived neurotrophic factor (BDNF) and β-actin mRNA were determined in homogenates of the cerebral cortex of each animal.
Homogenates of the cerebral cortex were prepared as follows: Rat brain tissues were sonicated for 15 sec and total RNA was obtained using the Trizol Reagent (Molecular Research Center, Cincinnati, Ohio, USA), according to the manufacturer's instructions. RNA concentrations were quantified by measuring the absorbances at 260 and 280 nm. RNA was reverse transcribed into cDNA during 45 min at 42° c. The cDNA products were diluted 1:40 for BDNF and 1:1000 for β-actin (a housekeeping gene for internal standard). In order to amplify gene specific sequences, PCR techniques were applied using ReadyMix PCR Master Mix (AB-genes, Surrey, UK) and specific primer sequences for BDNF and beta actin. The products were separated by electrophoresis on agarose and quantification of the bands was done by an image analyzer.

Compound: CCN(CC)CC(=O)Nc1c(C)cccc1C [lidocaine]
- hypothermic effect of nicotine (rats [1]; lidocaine 15 mg/kg + nicotine 2 mg/kg, 2x day for two days): maintained the hypothermic effect of nicotine

Compound: CN(C)CCCN1c2ccccc2CCc2ccc(Cl)cc21 [clomipramine]
- hypothermic effect of nicotine (rats [1]; clomipramine 30 mg/kg with nicotine 2 mg/kg, consecutive injections 2 h apart): no further reduction in the hypothermic effect
- hypothermic effect of nicotine (rats [1]; clomipramine 30 mg/kg with nicotine 2 mg/kg, first injection): inhibited to some extent the effect of nicotine

Compound: CN1CCC[C@H]1c1cccnc1 [nicotine, S-3-(1-methyl-2-pyrrolidinyl)pyridine]
- calcium influx (45Ca2+ uptake) (nAChR; first exposure to 50 μM nicotine, compared to basal uptake, SK-N-SH cells): caused an increase in calcium influx
- calcium influx (45Ca2+ uptake) (nAChR; second exposure to 50 μM nicotine after 15 min preincubation with nicotine alone): considerably reduced
- muscle contraction ([2]; 1st stimulation, 25 μM nicotine alone): caused muscle contraction
- muscle contraction ([2]; 2nd stimulation with 25 μM nicotine after 1st stimulation with nicotine alone): did not induce muscle contraction
- hypothermic effect (rats [1]; nicotine 2 mg/kg alone, 2x day for two days): loss of the hypothermic effect
- hypothermic effect (maximum decrease in body temperature) (rats [1]; nicotine 2 mg/kg alone, 3 injections 2 h apart): gradual decrease in the hypothermic effect
- magnitude of the decrease in body temperature (rats [1]; nicotine 2 mg/kg repeatedly injected for three consecutive days, P<0.05): became progressively smaller
- anxiolytic effect (time in open arm) (rats [3]; nicotine alone, 0.5 mg/kg and 2 mg/kg, second injection): did not induce an anxiolytic effect
- time spent in the open arm (anxiolytic effect) (rats [3]; one injection of nicotine): significantly increased
- BDNF mRNA level (ratio to β-actin) (BDNF mRNA; nicotine 0.5 mg/kg ip alone, repeated (third) injection): much smaller rise
- BDNF mRNA level (ratio to β-actin) (BDNF mRNA; nicotine 0.5 mg/kg ip, first injection): increased

Compound: OCCN1CCN(CCCN2c3ccccc3C=Cc3ccccc32)CC1 [opipramol]
- calcium uptake (45Ca2+) (nAChR; first stimulation with 50 μM nicotine in the presence of 10 μM opipramol, compared to nicotine alone): only slightly smaller
- nAChR desensitization (45Ca2+ uptake at second nicotine stimulation) (nAChR; second stimulation with 50 μM nicotine after 15 min preincubation with 50 μM nicotine + 10 μM test drug): remarkedly reduced
- effect of nicotine (muscle contraction) relative to that induced by nicotine alone ([2]; 1st stimulation, 25 μM nicotine in the presence of 10 μM opipramol): about 50%
- muscle contraction response to nicotine ([2]; 2nd stimulation with 25 μM nicotine after 1st stimulation in the presence of opipramol): almost full response
- duration of the effect of nicotine (muscle contraction) ([2]; nicotine administered together with opipramol, until removal by washing, data not shown): maintained steady for one hour
- change in body temperature (rats [1]; opipramol 20 mg/kg alone): only a slight decrease in body temperature
- magnitude of the reduction in body temperature (rats [1]; opipramol 20 mg/kg together with nicotine 2 mg/kg, second and third day, after second and third injections, P<0.001): significantly larger than that induced by nicotine alone
- anxiolytic effect (time in open arm) (rats [3]; nicotine 0.5 mg/kg together with opipramol 10 mg/kg or galantamine 5 mg/kg, second injection): the anxiolytic effect was seen in the second injection
- anxiolytic effect (time in open arm) (rats [3]; nicotine 2 mg/kg together with opipramol 10 mg/kg or galantamine 5 mg/kg): inhibited desensitization
- BDNF mRNA level (ratio to β-actin) (BDNF mRNA; nicotine 0.5 mg/kg + opipramol 10 mg/kg ip, third injection): rising even above that which was observed with nicotine alone
- BDNF mRNA level (ratio to β-actin) (BDNF mRNA; opipramol 10 mg/kg ip alone, third injection): no effect
